These compounds were tested against factor B (Homo sapiens, UniProt P00751) (assay: factor B inhibition assay of Biological Example 1). Conditions: IC50 (nM), assay of Biological Example 1 (Table 1).
Type: biochemical
Set-up: CVF-Bb complex prepared from purified cobra venom factor (1 μM), recombinant human complement factor B; made in house; host or cells: drosophila cells (factor B); E. coli (factor D used to form the complex)

factor B, sequence (P00751 260-764 limits assumed): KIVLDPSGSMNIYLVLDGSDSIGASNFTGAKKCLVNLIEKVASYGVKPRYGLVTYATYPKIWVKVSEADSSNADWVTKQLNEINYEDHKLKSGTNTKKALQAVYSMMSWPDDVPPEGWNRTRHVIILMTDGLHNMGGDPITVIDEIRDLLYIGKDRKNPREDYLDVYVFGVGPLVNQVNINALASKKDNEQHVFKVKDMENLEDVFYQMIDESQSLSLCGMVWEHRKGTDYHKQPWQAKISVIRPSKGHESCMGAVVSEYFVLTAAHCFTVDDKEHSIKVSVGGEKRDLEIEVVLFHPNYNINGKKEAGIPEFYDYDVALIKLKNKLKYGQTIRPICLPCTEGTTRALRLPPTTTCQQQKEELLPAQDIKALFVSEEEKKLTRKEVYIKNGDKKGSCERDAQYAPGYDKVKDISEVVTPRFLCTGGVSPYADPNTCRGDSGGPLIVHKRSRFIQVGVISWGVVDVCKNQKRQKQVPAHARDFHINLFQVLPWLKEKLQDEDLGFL
factor B, sequence (Q91132 23-649 partner limits assumed): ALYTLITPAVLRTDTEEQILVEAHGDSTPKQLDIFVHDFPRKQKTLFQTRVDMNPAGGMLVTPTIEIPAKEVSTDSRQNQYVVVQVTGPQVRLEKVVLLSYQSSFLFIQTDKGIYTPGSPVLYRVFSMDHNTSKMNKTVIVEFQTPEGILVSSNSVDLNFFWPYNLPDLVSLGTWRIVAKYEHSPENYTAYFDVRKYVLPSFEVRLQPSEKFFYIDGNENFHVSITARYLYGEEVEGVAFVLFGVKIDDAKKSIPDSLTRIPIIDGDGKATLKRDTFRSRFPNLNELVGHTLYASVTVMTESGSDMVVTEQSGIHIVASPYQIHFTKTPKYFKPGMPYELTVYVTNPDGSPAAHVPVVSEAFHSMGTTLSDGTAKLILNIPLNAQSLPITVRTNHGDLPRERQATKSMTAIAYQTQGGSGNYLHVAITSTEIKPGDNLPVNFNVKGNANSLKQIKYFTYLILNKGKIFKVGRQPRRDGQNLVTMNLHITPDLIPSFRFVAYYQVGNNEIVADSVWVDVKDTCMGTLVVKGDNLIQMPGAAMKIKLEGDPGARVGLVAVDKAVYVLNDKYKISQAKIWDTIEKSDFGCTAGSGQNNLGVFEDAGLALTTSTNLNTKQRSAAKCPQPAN
factor B, sequence (Q91132 733-984 partner limits assumed): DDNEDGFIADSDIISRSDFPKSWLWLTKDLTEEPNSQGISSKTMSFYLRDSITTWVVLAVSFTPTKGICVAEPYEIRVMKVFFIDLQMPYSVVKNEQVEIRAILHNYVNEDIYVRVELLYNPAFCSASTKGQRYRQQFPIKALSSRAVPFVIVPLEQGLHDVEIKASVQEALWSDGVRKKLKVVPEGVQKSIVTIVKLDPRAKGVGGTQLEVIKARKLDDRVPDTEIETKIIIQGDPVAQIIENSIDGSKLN
factor B, sequence (Q91132 1264-1642 partner limits assumed): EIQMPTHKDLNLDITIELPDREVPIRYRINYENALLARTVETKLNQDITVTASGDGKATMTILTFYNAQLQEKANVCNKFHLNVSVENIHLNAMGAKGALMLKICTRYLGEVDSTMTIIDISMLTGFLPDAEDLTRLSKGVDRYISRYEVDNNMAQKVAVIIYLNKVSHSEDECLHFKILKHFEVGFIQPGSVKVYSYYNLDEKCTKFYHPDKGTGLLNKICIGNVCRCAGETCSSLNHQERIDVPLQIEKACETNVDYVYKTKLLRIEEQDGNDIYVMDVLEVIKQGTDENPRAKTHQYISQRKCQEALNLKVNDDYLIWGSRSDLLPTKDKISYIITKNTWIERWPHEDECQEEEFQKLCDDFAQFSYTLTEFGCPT

Row | Structure (SMILES) | IC50 [nM]
1 | Cc1cc(CC(C)C)c(C(O)c2nc3cc(C#N)ccc3[nH]2)c2cc[nH]c12 (single isomer, unassigned; (+)) [67-C b) (+), (+)-2-(hydroxy(5-(isobutyl)-7-methyl-1H-indol-4-yl)methyl)-1H-benzo[d]imidazole-5-carbonitrile] | 8770
2 | Cc1cc(C(C)C)c(C(O)c2nc3cc(C#N)ccc3[nH]2)c2cc[nH]c12 (single isomer, unassigned; (+)) [67-D b) (+), (+)-2-(hydroxy(5-isopropyl-7-methyl-1H-indol-4-yl)methyl)-1H-benzo[d]imidazole-5-carbonitrile] | 3220
3 | Cc1cc(Cl)c(C(O)c2nc3cc(C#N)ccc3[nH]2)c2cc[nH]c12 (single isomer, unassigned; (+)) [67-E b) (+), (+)-2-((5-chloro-7-methyl-1H-indol-4-yl)(hydroxy)methyl)-1H-benzo[d]imidazole-5-carbonitrile] | 2080
4 | Cc1cc(C)c2[nH]ccc2c1C(O)c1nc2c(C)c(C#N)ccc2[nH]1 (single isomer, unassigned; (+)) [67-G b) (+), (+)-2-((5,7-dimethyl-1H-indol-4-yl)(hydroxy)methyl)-4-methyl-1H-benzo[d]imidazole-5-carbonitrile] | 2980
5 | CCc1cc(C)c2[nH]ccc2c1C(OC)c1nc2cc(C#N)ccc2[nH]1 (single isomer, unassigned; (+)) [70-D b) (+), (+)-2-((5-ethyl-7-methyl-1H-indol-4-yl)(methoxy)methyl)-1H-benzo[d]imidazole-5-carbonitrile] | 950
6 | COC(c1nc2cc(C#N)ccc2[nH]1)c1c(CC(C)C)cc(C)c2[nH]ccc12 (single isomer, unassigned; (+)) [71 b) (+), (+)-2-((5-isobutyl-7-methyl-1H-indol-4-yl)(methoxy)methyl)-1H-benzo[d]imidazole-5-carbonitrile] | 4550
7 | Cc1cc(C)c2[nH]ccc2c1C(C)(O)c1nc2cc(C#N)ccc2[nH]1 (single isomer, unassigned; (+)) [76-B b) (+), (+)-2-(1-(5,7-Dimethyl-1H-indol-4-yl)-1-hydroxyethyl)-1H-benzo[d]imidazole-5-carbonitrile] | 290
8 | CCc1cc(C)c2[nH]ccc2c1C(C)(O)c1nc2cc(C#N)ccc2[nH]1 (single isomer, unassigned; (+)) [77-C b) (+), (+)-2-(1-(5-ethyl-7-methyl-1H-indol-4-yl)-1-hydroxyethyl)-1H-benzo[d]imidazole-5-carbonitrile] | 40
9 | Cc1cc(C(C)C)c(C(C)(O)c2nc3cc(C#N)ccc3[nH]2)c2cc[nH]c12 (single isomer, unassigned; (+)) [79-B b) (+), (+)-2-(1-hydroxy-1-(5-isopropyl-7-methyl-1H-indol-4-yl)ethyl)-1H-benzo[d]imidazole-5-carbonitrile] | 1070
10 | Cc1cc(C2CC2)c(C(C)(O)c2nc3cc(C#N)ccc3[nH]2)c2cc[nH]c12 (single isomer, unassigned; (+)) [79-C b) (+), (+)-2-(1-(5-cyclopropyl-7-methyl-1H-indol-4-yl)-1-hydroxyethyl)-1H-benzo[d]imidazole-5-carbonitrile] | 8
11 | Cc1cc(CC(C)C)c(C(C)(O)c2nc3cc(C#N)ccc3[nH]2)c2cc[nH]c12 (single isomer, unassigned; (+)) [79-D b) (+), (+)-2-(1-hydroxy-1-(5-isobutyl-7-methyl-1H-indol-4-yl)ethyl)-1H-benzo[d]imidazole-5-carbonitrile] | 2240
12 | Cc1cc(Cl)c(C(C)(O)c2nc3cc(C#N)ccc3[nH]2)c2cc[nH]c12 (single isomer, unassigned; (+)) [79-E b) (+), (+)-2-(1-(5-chloro-7-methyl-1H-indol-4-yl)-1-hydroxyethyl)-1H-benzo[d]imidazole-5-carbonitrile] | 1120
13 | CCc1cc(C)c2[nH]ccc2c1C(O)(c1nc2cc(C#N)ccc2[nH]1)C(F)(F)F (single isomer, unassigned; (+)) [80-C b) (+), (+)-2-(1-(5-ethyl-7-methyl-1H-indol-4-yl)-2,2,2-trifluoro-1-hydroxyethyl)-1H-benzo[d]imidazole-5-carbonitrile] | 380
14 | Cc1cc(C)c2[nH]ccc2c1C(O)(c1nc2cc(C#N)ccc2[nH]1)C(F)(F)F (single isomer, unassigned; (+)) [80-D b) (+), (+)-2-(1-(5,7-dimethyl-1H-indol-4-yl)-2,2,2-trifluoro-1-hydroxyethyl)-1H-benzo[d]imidazole-5-carbonitrile] | 4330
15 | Cc1cc(C2CC2)c(C(O)(c2nc3cc(C#N)ccc3[nH]2)C(F)(F)F)c2cc[nH]c12 (single isomer, unassigned; (+)) [80-E b) (+), (+)-2-(1-(5-cyclopropyl-7-methyl-1H-indol-4-yl)-2,2,2-trifluoro-1-hydroxyethyl)-1H-benzo[d]imidazole-5-carbonitrile] | 180
16 | Cc1cc(C(C)C)c(C(O)(c2nc3cc(C#N)ccc3[nH]2)C(F)(F)F)c2cc[nH]c12 (single isomer, unassigned; (+)) [80-F b) (+), (+)-2-(2,2,2-trifluoro-1-hydroxy-1-(5-isopropyl-7-methyl-1H-indol-4-yl)ethyl)-1H-benzo[d]imidazole-5-carbonitrile] | 690

Row | Structure (SMILES) | IC50 [nM]
17 | COC(C)(c1nc2cc(C#N)ccc2[nH]1)c1c(C)cc(C)c2[nH]ccc12 (single isomer, unassigned; (+)) [84-B b) (+), (+)-2-(1-(5,7-dimethyl-1H-indol-4-yl)-1-methoxyethyl)-1H-benzo[d]imidazole-5-carbonitrile] | 710
18 | CCc1cc(C)c2[nH]ccc2c1C(C)(OC)c1nc2cc(C#N)ccc2[nH]1 (single isomer, unassigned; (+)) [84-C b) (+), (+)-2-(1-(5-ethyl-7-methyl-1H-indol-4-yl)-1-methoxyethyl)-1H-benzo[d]imidazole-5-carbonitrile] | 150
19 | CCc1cc(C)c2[nH]ccc2c1C(OC)(c1nc2cc(C#N)ccc2[nH]1)C(F)(F)F (single isomer, unassigned; (+)) [84-D b) (+), (+)-2-(1-(5-ethyl-7-methyl-1H-indol-4-yl)-2,2,2-trifluoro-1-methoxyethyl)-1H-benzo[d]imidazole-5-carbonitrile] | 460
20 | COC(C)(c1nc2cc(C#N)ccc2[nH]1)c1c(CC(C)C)cc(C)c2[nH]ccc12 (single isomer, unassigned; (+)) [84-E b) (+), (+)-2-(1-(5-isobutyl-7-methyl-1H-indol-4-yl)-1-methoxyethyl)-1H-benzo[d]imidazole-5-carbonitrile] | 1200
21 | Cc1cc(C)c2[nH]ccc2c1C(N)c1nc2ccc(C#N)cc2[nH]1 (single isomer, unassigned; (+)) [95-B b) (+), (+)-2-(amino(5,7-dimethyl-1H-indol-4-yl)methyl)benzo[d]imidazole-5-carbonitrile] | 2140
22 | CCc1cc(C)c2[nH]ccc2c1C(N)c1nc2cc(C#N)ccc2[nH]1 (single isomer, unassigned; (+)) [96-C b) (+), (+)-2-(amino(5-ethyl-7-methyl-1H-indol-4-yl)methyl)-1H-benzo[d]imidazole-5-carbonitrile] | 2210
23 | CCc1cc(C)c2[nH]ccc2c1C(C)(N)c1nc2cc(C#N)ccc2[nH]1 (single isomer, unassigned; (+)) [102-C b) (+), (+)-2-(1-amino-1-(5-ethyl-7-methyl-1H-indol-4-yl)ethyl)-1H-benzo[d]imidazole-5-carbonitrile] | 50
24 | Cc1cc(C2CC2)c(C(C)(N)c2nc3cc(C#N)ccc3[nH]2)c2cc[nH]c12 (single isomer, unassigned; (+)) [102-D b) (+), (+)-2-(1-amino-1-(5-cyclopropyl-7-methyl-1H-indol-4-yl)ethyl)-1H-benzo[d]imidazole-5-carbonitrile] | 6
25 | Cc1cc(Br)c(C(N)(c2nc3cc(C#N)ccc3[nH]2)C(F)(F)F)c2cc[nH]c12 (single isomer, unassigned; (+)) [105-B b) (+), (+)-2-(1-amino-1-(5-bromo-7-methyl-1H-indol-4-yl)-2,2,2-trifluoroethyl)-1H-benzo[d]imidazole-5-carbonitrile] | 90
26 | CNC(c1nc2cc(C#N)ccc2[nH]1)(c1c(Br)cc(C)c2[nH]ccc12)C(F)(F)F (single isomer, unassigned; (+)) [106 b) (+), (+)-2-(1-(5-bromo-7-methyl-1H-indol-4-yl)-2,2,2-trifluoro-1-(methylamino)ethyl)-1H-benzo[d]imidazole-5-carbonitrile] | 150
27 | CCc1cc(C)c2[nH]ccc2c1C(NC)(c1nc2cc(C#N)ccc2[nH]1)C(F)(F)F (single isomer, unassigned; (+)) [107-B b) (+), (+)-2-(1-(5-ethyl-7-methyl-1H-indol-4-yl)-2,2,2-trifluoro-1-(methylamino)ethyl)-1H-benzo[d]imidazole-5-carbonitrile] | 140
28 | CCc1cc(C)c2[nH]ccc2c1C(N)(c1nc2cc(C#N)ccc2[nH]1)C(F)(F)F (single isomer, unassigned; (+)) [107-C b) (+)] | 400
29 | Cc1cc(C2CC2)c(C(N)(c2nc3cc(C#N)ccc3[nH]2)C(F)(F)F)c2cc[nH]c12 (single isomer, unassigned; (+)) [107-D b) (+), (+)-2-(1-amino-1-(5-cyclopropyl-7-methyl-1H-indol-4-yl)-2,2,2-trifluoroethyl)-1H-benzo[d]imidazole-5-carbonitrile] | 50
30 | CNC(c1nc2cc(C#N)ccc2[nH]1)(c1c(C2CC2)cc(C)c2[nH]ccc12)C(F)(F)F (single isomer, unassigned; (+)) [107-E b) (+), (+)-2-(1-(5-cyclopropyl-7-methyl-1H-indol-4-yl)-2,2,2-trifluoro-1-(methylamino)ethyl)-1H-benzo[d]imidazole-5-carbonitrile] | 240
31 | COc1cc(C)c2c(c1C(C)(OC)c1nc3cc(C#N)ccc3[nH]1)CCN2 (single isomer, unassigned; (+)) [124 b) (+), (+)-2-(1-methoxy-1-(5-methoxy-7-methylindolin-4-yl)ethyl)-1H-benzo[d]imidazole-5-carbonitrile] | 490
